Measured values taken from publication doi:10.1101/2020.07.20.212142v1 (bioRxiv, 2020).

What was measured:
[1] = system: NIH 3T3 cells; assay: NIH 3T3 peptide permeation by live-cell confocal microscopy; type: cell-based, mouse; settings: live NIH 3T3 cells; 5 µM TAMRA-labeled peptide, Opti-mem + 2% FBS, 3 hours, 37°C
[2] = system: dechorionated Drosophila melanogaster hosts; type: in vivo; settings: dechorionated-only hosts; 20 µM peptide overnight, room temperature

Substance	permeation by confocal fluorescence microscopy [1]	partial loss of viability observed (in words) [2]
TAMRA-GEGEGEG	no permeation was detected	–
TAMRA-MRKRHASRREK	spare punctuate fluorescence	–
TAMRA-RRRRRRRRR	spare punctuate fluorescence	sole exception
cyclo[Glut-MRKRHASRRE-K*]-K(5-TAMRA) (sidechain bridge or staple)	substantially greater permeation	–
